Experimental data published in patent publication US20250319105A1, “NEUROACTIVE STEROID FOR THE TREATMENT OF ALZHEIMER'S DISEASE” (SAGE THERAPEUTICS, INC., priority 2021, published 2025).
Entries after “also recorded” stand apart in the source; their conditions may differ.

Key:
[1] = Open-label study: PK sampling, plasma concentrations; type: in vivo, human; conditions: Day 7 and Day 14; 3 mg once daily oral with a meal
Text: (§1) Additional objectives of the study were to assess the following: • PK profile of Compound 1 following administration of multiple doses as assessed by periodic PK sampling • Change from baseline on tests of executive function. • Change from baseline on tests of learning and memory. • Verbal Recognition Memory • Paired Associates Learning • Pattern Recognition Memory • Spatial Span • Change from baseline on tests of social cognition. • Emotion Recognition Task • Emotion Bias Task • Change from baseline on tests of psychomotor function. • Change from baseline on assessments of neuropsychiatric symptoms: • Change from baseline in performance on the Montreal Cognitive Assessment • Change from baseline in Clinical Global Impressions-Severity scores • Overall scores on Clinical Global Impressions-Improvement scales • Change from baseline in Amsterdam Instrumental Activities of Daily Living • Change from baseline in exploratory peripheral biomarkers • Amyloid PET Scan

[2] = test system: participants with MCI or mild dementia due to AD; assay: Open-label study: tests of learning and memory (PAL, PRM, VRM, Spatial Span); type: in vivo, human
Text: as §1
The tests of Learning and Memory included Paired Associates Learning (PAL), which assesses how well the subject remembers the location of hidden objects; Pattern Recognition Memory (PRM), which assesses how well the subject remembers a pattern; and Verbal Recognition Memory […], which assesses how well the subject stores and retrieves verbal information.

[3] = test system: participants with MCI or mild dementia due to AD; assay: Open-label study: safety and tolerability (TEAEs, laboratory, vital signs, ECG); conditions: 3 mg once daily oral for 14 days
Text: The Study comprised a 2-week screening period, a 1-week baseline period, a 2-week open-label treatment period, and a 2-week follow-up period. […] During the 1-week pre-treatment baseline period, patients underwent repeated cognitive testing using a comprehensive battery of tests to establish a robust cognitive baseline across multiple domains of cognitive function.
The key inclusion criteria for the subjects were as follows: • Be between the ages of 50 and 80 years, inclusive, at Screening • Meet the following criteria for MCI or mild dementia due to AD at Screening: • A memory complaint reported by the participant or his/her study partner • A CDR score of 0.5 to 1.0 (inclusive) with a memory box score ≥0.5 • Essentially preserved activities of daily living, in the opinion of the investigator. • Brain MRI report, obtained within the 2 years preceding the Baseline Period, that is consistent with the diagnosis of AD-MCI with no clinically significant findings of non-AD pathology that could account for the observed cognitive impairment • Have a score of 15 to 24 (inclusive) on the MoCA at Screening • Have an estimated premorbid IQ≥85 (as assessed by the Test of Premorbid Functioning, performed at Screening
The Primary objective of the study was to assess (1) the incidence of Treatment-Emergent Adverse Event (TEAE).
The secondary objectives of the study were to assess: • the percentage of Participants With Clinically Significant Changes in Vital Sign Measurements, clinical laboratory analytes, electrocardiograms (ECGs), and responses on the Columbia-Suicide Severity Rating Scale (C-SSRS).

[4] = test system: participants with MCI or mild dementia due to AD; assay: Open-label study: global cognition, Montreal Cognitive Assessment (MoCA); type: in vivo, human; conditions: 3 mg once daily oral for 14 days
Text: as §1

[5] = test system: participants with MCI or mild dementia due to AD; assay: Open-label study: tests of executive functioning (MTT, OTS, SWM, DSST, 2-Back); type: in vivo, human
Text: as §1
The tests of Executive Functioning included (1) Multitasking Test (MTT), which assesses how well the subject manages conflicting information; (2) One Touch Stockings of Cambridge (OTS), which assesses how well the subject plans, holds onto, and manipulates information to solve a puzzle; (3) Spatial Working Memory (SWM), which assesses how well the subject develops and uses a strategy to find hidden information; (4) Digit Symbol Substitution Task (DSST), which assesses how efficiently can the subject complete a demanding task (daily measure); and (5) Two-Back Test (NBX), which asks is the symbol the same as that shown two symbols ago.

[6] = test system: participants with MCI or mild dementia due to AD; assay: Open-label study: tests of attention and psychomotor performance (RTI, PVT); type: in vivo, human; conditions: 3 mg once daily oral for 14 days
Text: as §1
The tests of Attention and Psychomotor Performance included Reaction Time (RTI), which assesses how fast the subject can respond to a stimulus (weekly measure); Psychomotor Vigilance Task (PVT), which assesses how fast can the subject respond to a stimulus (daily measure).

[7] = 3 mg once daily oral for 14 days, change from baseline, Clinic/Weekly

## C[C@H](CC[C@](C)(O)C(F)(F)F)[C@H]1CC[C@H]2[C@@H]3CC=C4C[C@@](C)(O)CC[C@]4(C)[C@H]3CC[C@]12C [Compound 1]
[1]
  Plasma concentrations versus predicted range: consistent with the predicted range
[2]; [7]
  Paired Associates Learning, Directional Trend: no change (or slight worsening); also recorded: Mixed
  Pattern Recognition Memory, Directional Trend: numerical improvement
  Spatial Span, Directional Trend: no change (or slight worsening); also recorded: Mixed
  Verbal Recognition Memory, Directional Trend: Improvement
[2]; Day 14 vs baseline, 3 mg once daily oral
  Performance on tests of learning and memory: additional signals suggesting improved performance
[3]; 26 enrolled subjects
  Clinically significant laboratory abnormalities: No clinically significant laboratory abnormalities
  Clinically significant vital sign or ECG abnormalities: No clinically significant vital sign or ECG abnormalities
  Number of TEAEs: 8
  Severe TEAEs, SAEs, or deaths: No severe TEAEs, SAEs, or deaths
  TEAEs resulting in study drug discontinuation or withdrawal from the study: No TEAEs resulted in study drug discontinuation or withdrawal from the study
[3]; of 8 TEAEs
  Mild TEAEs, n (%): 4 (50%)
  Moderate TEAEs, n (%): 4 (50%)
  Number of TEAEs considered related to study treatment: 6
[3]; of the 26 enrolled subjects
  Number of subjects who experienced TEAEs: 7
[4]; change from baseline, Monthly
  MoCA (Global), Directional Trend: Improvement
[4]; CFB at Day 28, n = 20
  MoCA score, mean CFB (change from baseline): 2.3
[4]; Day 28, n = 20, baseline mean 20.5
  MoCA score, mean: (22.8
[4]; statistically significant
  Improvement in global cognition, assessed via MoCA: +2.3 pts
[5]; [7]
  2-Back Test, Directional Trend: numerical improvement
  Multitasking, Directional Trend: numerical improvement
  One Touch Stockings, Directional Trend: numerical improvement
  Spatial working Memory, Directional Trend: numerical improvement
[5]; 3 mg once daily oral for 14 days, change from baseline, Mobile/Daily
  Digit Symbol Substitution, Directional Trend: numerical improvement
[5]; Day 14, 3 mg once daily oral
  Performance from baseline on all tests of executive functioning: improved performance
[6]
  Changes in attention or psychomotor processing: No changes
[6]; change from baseline, Clinic/Weekly
  Reaction Time, Directional Trend: No Change
[6]; change from baseline, Mobile/Daily
  Psychomotor Vigilance Task, Directional Trend: No Change
